Read-outs that look alike come from different tables or passages of the source.
Key:
Experiment in all cases: biochemical
Design in all cases: KINOMEscan active site-directed competition binding assay (DiscoveRx), 456 kinases, per cent of control at 300 nM
Conditions in all cases: read-out: Percent of Control (%)
PKAC-beta = biological target: T1, PKAC-beta (Homo sapiens, UniProt P22694)
T1 construct: gene PRKACB
Outline: (§1)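 Active site-directed competition binding (KINOMEscan) across a 456-kinase panel, compounds tested at 300 nmol/L.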

CDK3 = CDK3 (Homo sapiens, UniProt Q00526)
Outline: as §1

MYO3A = MYO3A (Homo sapiens, UniProt Q8NEV4)
MYO3A, sequence (Q8NEV4 whole entry): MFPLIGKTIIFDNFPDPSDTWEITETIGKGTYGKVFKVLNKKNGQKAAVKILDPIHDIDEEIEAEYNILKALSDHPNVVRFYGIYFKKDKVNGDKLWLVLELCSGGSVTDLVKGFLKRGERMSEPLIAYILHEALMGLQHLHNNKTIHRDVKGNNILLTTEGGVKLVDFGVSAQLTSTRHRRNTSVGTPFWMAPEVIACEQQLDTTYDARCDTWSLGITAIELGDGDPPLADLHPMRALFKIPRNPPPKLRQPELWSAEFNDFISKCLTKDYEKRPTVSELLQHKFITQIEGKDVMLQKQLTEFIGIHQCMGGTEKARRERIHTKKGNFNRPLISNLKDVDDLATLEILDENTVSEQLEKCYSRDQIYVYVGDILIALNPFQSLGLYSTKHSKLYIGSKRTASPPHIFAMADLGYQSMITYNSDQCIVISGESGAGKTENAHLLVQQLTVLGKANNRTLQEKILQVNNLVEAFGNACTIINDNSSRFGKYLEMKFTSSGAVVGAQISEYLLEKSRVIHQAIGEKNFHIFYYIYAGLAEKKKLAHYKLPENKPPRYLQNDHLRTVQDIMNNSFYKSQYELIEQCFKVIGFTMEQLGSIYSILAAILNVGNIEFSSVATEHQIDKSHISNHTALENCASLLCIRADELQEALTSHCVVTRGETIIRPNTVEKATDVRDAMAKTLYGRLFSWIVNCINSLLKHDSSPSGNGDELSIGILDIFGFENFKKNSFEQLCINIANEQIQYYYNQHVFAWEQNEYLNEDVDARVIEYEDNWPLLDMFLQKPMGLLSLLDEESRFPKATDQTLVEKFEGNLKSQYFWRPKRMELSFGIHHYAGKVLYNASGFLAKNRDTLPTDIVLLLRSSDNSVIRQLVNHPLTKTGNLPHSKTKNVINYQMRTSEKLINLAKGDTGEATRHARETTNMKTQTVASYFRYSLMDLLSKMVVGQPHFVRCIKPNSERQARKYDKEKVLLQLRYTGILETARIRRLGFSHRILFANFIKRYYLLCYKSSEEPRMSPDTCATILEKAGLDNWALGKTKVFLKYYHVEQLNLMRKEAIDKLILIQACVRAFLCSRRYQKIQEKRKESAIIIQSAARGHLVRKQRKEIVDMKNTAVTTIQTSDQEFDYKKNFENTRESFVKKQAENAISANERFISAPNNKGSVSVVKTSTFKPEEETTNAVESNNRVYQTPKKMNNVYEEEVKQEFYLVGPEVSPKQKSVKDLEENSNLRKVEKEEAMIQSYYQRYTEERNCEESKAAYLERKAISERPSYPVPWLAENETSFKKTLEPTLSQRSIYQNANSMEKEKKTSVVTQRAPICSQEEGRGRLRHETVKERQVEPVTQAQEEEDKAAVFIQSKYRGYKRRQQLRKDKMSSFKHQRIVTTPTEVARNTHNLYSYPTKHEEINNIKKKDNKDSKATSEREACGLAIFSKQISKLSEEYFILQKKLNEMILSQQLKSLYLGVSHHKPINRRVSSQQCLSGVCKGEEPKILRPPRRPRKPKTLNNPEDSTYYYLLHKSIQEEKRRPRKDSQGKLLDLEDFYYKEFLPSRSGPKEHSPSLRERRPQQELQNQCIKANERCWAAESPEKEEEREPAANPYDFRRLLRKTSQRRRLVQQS
Outline: as §1

PIK3CA(I800L) = PIK3CA(I800L) (Homo sapiens, UniProt P42336, I800L)
Outline: as §1

ERBB2 = ERBB2 (Homo sapiens, UniProt P04626)
Outline: as §1

ERBB3 = ERBB3 (Homo sapiens, UniProt P21860)
Outline: as §1

DDR2 = DDR2 (Homo sapiens, UniProt Q16832)
DDR2, sequence (Q16832 whole entry): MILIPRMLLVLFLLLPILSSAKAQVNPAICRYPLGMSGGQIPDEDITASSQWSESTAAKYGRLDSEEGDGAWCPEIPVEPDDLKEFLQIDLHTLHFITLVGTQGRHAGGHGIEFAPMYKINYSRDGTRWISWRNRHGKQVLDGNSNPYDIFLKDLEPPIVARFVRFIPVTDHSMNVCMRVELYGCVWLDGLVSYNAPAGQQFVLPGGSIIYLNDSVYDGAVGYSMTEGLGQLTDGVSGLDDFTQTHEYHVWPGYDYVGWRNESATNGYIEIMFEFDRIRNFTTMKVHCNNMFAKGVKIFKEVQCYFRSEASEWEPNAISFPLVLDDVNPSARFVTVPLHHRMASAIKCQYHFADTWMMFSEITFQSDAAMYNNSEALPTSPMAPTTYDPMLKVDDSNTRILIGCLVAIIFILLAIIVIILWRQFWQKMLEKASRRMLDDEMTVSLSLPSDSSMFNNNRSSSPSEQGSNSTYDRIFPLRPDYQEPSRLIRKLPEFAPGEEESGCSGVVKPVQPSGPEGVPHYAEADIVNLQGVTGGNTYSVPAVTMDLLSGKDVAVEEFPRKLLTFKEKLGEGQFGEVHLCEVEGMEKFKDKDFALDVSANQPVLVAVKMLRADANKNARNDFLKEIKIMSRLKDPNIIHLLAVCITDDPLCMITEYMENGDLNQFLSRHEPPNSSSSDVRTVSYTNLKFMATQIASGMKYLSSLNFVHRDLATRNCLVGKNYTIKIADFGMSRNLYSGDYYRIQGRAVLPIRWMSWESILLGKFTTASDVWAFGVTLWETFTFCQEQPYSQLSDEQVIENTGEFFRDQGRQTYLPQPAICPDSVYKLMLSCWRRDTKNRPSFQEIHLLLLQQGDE
Outline: as §1

MAP3K1 = MAP3K1 (Homo sapiens, UniProt Q13233)
Outline: as §1

EPHB2 = EPHB2 (Homo sapiens, UniProt P29323)
Outline: as §1

NLK = NLK (Homo sapiens, UniProt Q9UBE8)
Outline: as §1

TIE2 = biological target: T2, TIE2 (Homo sapiens, UniProt Q02763)
T2 construct: gene TEK
Outline: as §1

ASK1 = biological target: T3, ASK1 (Homo sapiens, UniProt Q99683)
T3 construct: gene MAP3K5
Outline: as §1

[1] = biological target: T4, ABL1(T315I)-nonphosphorylated (Homo sapiens, UniProt P00519, T315I)
T4 construct: nonphosphorylated
Outline: as §1

TAOK2 = TAOK2 (Homo sapiens, UniProt Q9UL54)
Outline: as §1

AURKA = AURKA (Homo sapiens, UniProt O14965)
AURKA, sequence (O14965 whole entry): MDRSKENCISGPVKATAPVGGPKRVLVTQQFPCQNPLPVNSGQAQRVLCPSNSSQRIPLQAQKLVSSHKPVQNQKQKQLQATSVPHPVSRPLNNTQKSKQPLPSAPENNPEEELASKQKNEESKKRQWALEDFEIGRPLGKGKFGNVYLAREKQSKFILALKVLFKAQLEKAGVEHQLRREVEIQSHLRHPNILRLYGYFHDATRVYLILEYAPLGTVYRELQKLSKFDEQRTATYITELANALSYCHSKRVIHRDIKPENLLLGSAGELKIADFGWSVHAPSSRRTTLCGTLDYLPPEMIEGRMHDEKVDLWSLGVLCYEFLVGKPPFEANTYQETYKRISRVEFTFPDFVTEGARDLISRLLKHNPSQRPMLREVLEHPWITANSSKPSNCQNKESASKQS
Outline: as §1

AMPK-alpha2 = biological target: T5, AMPK-alpha2 (Homo sapiens, UniProt P54646)
T5 construct: gene PRKAA2
T5 sequence (P54646 whole entry): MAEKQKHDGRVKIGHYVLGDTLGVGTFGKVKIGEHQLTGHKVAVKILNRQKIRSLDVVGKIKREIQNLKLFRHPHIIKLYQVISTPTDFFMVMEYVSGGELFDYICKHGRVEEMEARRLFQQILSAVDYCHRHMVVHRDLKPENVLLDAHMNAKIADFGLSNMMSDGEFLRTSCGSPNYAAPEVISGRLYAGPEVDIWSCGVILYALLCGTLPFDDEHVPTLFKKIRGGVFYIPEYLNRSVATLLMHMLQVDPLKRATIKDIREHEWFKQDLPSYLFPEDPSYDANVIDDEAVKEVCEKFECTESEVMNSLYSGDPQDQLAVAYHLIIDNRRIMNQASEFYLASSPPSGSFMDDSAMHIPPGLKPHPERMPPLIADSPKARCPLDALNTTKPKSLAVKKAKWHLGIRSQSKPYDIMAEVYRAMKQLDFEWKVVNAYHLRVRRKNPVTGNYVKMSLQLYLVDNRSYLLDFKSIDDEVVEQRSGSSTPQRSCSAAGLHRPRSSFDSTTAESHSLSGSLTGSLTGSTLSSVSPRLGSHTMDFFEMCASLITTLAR
Outline: as §1

ERK8 = biological target: T6, ERK8 (Homo sapiens, UniProt Q8TD08)
T6 construct: gene MAPK15
T6 sequence (Q8TD08 whole entry): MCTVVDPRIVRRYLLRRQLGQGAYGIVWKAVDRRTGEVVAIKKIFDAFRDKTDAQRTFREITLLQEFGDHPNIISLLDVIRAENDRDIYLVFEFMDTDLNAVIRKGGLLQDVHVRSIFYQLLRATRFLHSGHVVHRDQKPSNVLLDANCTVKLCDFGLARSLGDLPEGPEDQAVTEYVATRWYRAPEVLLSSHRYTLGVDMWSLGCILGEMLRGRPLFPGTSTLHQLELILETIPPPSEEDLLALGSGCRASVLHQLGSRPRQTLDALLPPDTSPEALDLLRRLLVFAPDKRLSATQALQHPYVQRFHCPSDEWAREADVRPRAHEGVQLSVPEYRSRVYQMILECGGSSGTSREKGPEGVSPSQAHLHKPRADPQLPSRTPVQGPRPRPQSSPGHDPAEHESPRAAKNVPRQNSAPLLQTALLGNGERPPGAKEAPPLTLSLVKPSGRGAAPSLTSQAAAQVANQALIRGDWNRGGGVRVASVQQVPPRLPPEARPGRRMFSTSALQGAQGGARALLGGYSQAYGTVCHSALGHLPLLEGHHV
Outline: as §1

AURKC = AURKC (Homo sapiens, UniProt Q9UQB9)
Outline: as §1

WNK1 = WNK1 (Homo sapiens, UniProt Q9H4A3)
Outline: as §1

[2] = biological target: T7, JAK2(JH1domain-catalytic) (Homo sapiens, UniProt O60674)
T7 construct: JH1domain-catalytic
T7 sequence (O60674 whole entry): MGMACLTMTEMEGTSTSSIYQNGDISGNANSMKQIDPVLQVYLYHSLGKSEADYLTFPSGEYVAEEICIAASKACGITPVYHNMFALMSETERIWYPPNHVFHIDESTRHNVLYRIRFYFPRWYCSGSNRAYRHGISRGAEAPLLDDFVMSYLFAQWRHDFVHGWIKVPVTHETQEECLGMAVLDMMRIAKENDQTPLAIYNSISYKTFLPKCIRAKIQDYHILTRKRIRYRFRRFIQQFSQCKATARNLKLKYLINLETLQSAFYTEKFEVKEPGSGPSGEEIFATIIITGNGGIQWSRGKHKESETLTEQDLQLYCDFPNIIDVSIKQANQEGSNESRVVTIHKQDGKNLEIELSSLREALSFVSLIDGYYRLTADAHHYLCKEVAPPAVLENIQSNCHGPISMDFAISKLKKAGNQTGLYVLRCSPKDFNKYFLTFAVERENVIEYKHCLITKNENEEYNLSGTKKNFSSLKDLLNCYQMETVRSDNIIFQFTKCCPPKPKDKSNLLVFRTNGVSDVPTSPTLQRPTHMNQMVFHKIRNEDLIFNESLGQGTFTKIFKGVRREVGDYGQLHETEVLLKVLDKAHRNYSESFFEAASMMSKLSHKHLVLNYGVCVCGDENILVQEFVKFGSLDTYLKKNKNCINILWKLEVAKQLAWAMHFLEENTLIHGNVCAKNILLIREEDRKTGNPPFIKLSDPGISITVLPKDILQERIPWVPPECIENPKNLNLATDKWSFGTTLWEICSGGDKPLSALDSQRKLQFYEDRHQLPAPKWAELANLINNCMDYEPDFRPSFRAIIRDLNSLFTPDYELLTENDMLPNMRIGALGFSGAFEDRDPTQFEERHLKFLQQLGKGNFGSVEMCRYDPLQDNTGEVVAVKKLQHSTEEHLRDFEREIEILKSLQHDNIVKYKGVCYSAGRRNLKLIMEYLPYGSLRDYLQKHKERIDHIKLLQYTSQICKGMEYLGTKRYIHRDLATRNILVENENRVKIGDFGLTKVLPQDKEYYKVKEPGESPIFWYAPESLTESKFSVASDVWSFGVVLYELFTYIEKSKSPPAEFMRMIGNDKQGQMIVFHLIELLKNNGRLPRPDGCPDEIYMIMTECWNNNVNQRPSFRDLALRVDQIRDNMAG
Outline: as §1

YES = biological target: T8, YES (Homo sapiens, UniProt P07947)
T8 construct: gene YES1
Outline: as §1

ROCK1 = ROCK1 (Homo sapiens, UniProt Q13464)
Outline: as §1

## O=C(/C=C/c1cnccc1-c1ccc(F)cc1)Nc1ccc(CCc2nnco2)cc1 [T-418, (2E)-3-(4-(4-fluorophenyl)pyridin-3-yl)-N-(4-(2-(1,3,4-oxadiazol-2-yl)ethyl)phenyl)acrylamide]
PKAC-beta; sheet T-418
  remaining binding at 0.3 µM: 88%
CDK3; sheet T-418
  remaining binding at 0.3 µM: 95%
MYO3A; sheet T-418
  remaining binding at 0.3 µM: 100%
PIK3CA(I800L); sheet T-418
  remaining binding at 0.3 µM: 51%
ERBB2; sheet T-418
  remaining binding at 0.3 µM: 52%
ERBB3; sheet T-418
  remaining binding at 0.3 µM: 76%
DDR2; sheet T-418
  remaining binding at 0.3 µM: 100%
MAP3K1; sheet T-418
  remaining binding at 0.3 µM: 100%
EPHB2; sheet T-418
  remaining binding at 0.3 µM: 100%
NLK; sheet T-418
  remaining binding at 0.3 µM: 98%
TIE2; sheet T-418
  remaining binding at 0.3 µM: 85%
ASK1; sheet T-418
  remaining binding at 0.3 µM: 92%
[1]; sheet T-418
  remaining binding at 0.3 µM: 100%
TAOK2; sheet T-418
  remaining binding at 0.3 µM: 100%
AURKA; sheet T-418
  remaining binding at 0.3 µM: 100%
AMPK-alpha2; sheet T-418
  remaining binding at 0.3 µM: 100%
ERK8; sheet T-418
  remaining binding at 0.3 µM: 94%
AURKC; sheet T-418
  remaining binding at 0.3 µM: 100%
WNK1; sheet T-418
  remaining binding at 0.3 µM: 100%
[2]; sheet T-418
  remaining binding at 0.3 µM: 100%
YES; sheet T-418
  remaining binding at 0.3 µM: 100%
ROCK1; sheet T-418
  remaining binding at 0.3 µM: 81%

## Cc1ncccc1Oc1sc(C(N)=O)c2c1-c1c(cnn1C)CC2 [T-474, 1-methyl-8-((2-methylpyridin-3-yl)oxy)-4,5-dihydro-1H-thieno[3,4-g]indazole-6-carboxamide]
PKAC-beta
  remaining binding at 0.3 µM: 100%
CDK3
  remaining binding at 0.3 µM: 100%
MYO3A
  remaining binding at 0.3 µM: 100%
PIK3CA(I800L)
  remaining binding at 0.3 µM: 77%
ERBB2
  remaining binding at 0.3 µM: 47%
ERBB3
  remaining binding at 0.3 µM: 78%
DDR2
  remaining binding at 0.3 µM: 100%
MAP3K1
  remaining binding at 0.3 µM: 84%
EPHB2
  remaining binding at 0.3 µM: 83%
NLK
  remaining binding at 0.3 µM: 100%
TIE2
  remaining binding at 0.3 µM: 99%
ASK1
  remaining binding at 0.3 µM: 81%
[1]
  remaining binding at 0.3 µM: 100%
TAOK2
  remaining binding at 0.3 µM: 100%
AURKA
  remaining binding at 0.3 µM: 100%
AMPK-alpha2
  remaining binding at 0.3 µM: 100%
ERK8
  remaining binding at 0.3 µM: 88%
AURKC
  remaining binding at 0.3 µM: 100%
WNK1
  remaining binding at 0.3 µM: 100%
[2]
  remaining binding at 0.3 µM: 100%
YES
  remaining binding at 0.3 µM: 100%
ROCK1
  remaining binding at 0.3 µM: 100%
